Converted amounts (≈) assume the structure as drawn.
settings: buffer; pH 7.4; 200.0 µM

Row | Compound | solubility kinetic [mg/mL]
1 | CCOC(=O)CN1C(=O)C(=O)N(Cc2c(Cl)cccc2Cl)C1=O | 0.0306 (≈ 85.2 µM)
2 | COc1ccc2cc(C(=O)N3CCN(c4ccc(F)cc4)CC3)[nH]c2c1 | 0.0016 (≈ 4.53 µM)
3 | Cc1cc(C(=O)CN2C(=O)NC(CC(C)C)C2=O)c(C)n1C1CC1 (centres undefined) | 0.0227 (≈ 68.5 µM)
4 | O=c1c(Cc2c(F)cccc2Cl)c(O)ccn1C1CC1 | > 0.0441
5 | Cc1cccc(N2CCN(Cc3nc(CC4CC4)no3)CC2)n1 | 0.0411 (≈ 131 µM)
6 | O=C1Nc2ccc(Cl)cc2C(C#CC2CC2)(C(F)(F)F)O1 (centres undefined) | 0.0196 (≈ 62.1 µM)
7 | CN1CCCN(C(=O)c2cccc(Br)c2)CC1 | 0.0354 (≈ 119 µM)
8 | COC(=O)C(Cc1ccccc1)NC(=O)CC(C)CC(=O)Nc1ccc(C)cc1 (centres undefined) | 0.0143 (≈ 36.1 µM)
9 | CCOC(=O)c1cc(S(=O)(=O)N2CCC(C)CC2)cn1C | 0.0052 (≈ 16.5 µM)
10 | CC(NC(=O)c1ccc(S(=O)(=O)Nc2ccccc2Cl)cc1)c1ccncc1 (centres undefined) | > 0.0624
11 | COc1cccc(NC(=O)N2CCCC(C(=O)NC3CCCCC3C)C2)c1 (centres undefined) | 0.0064 (≈ 17.1 µM)
12 | COc1ccc(NC(=O)CC(=O)Nc2ccc(OC)cc2)cc1 | 0.0012 (≈ 3.82 µM)
13 | CC(C(=O)N(C)C)N1c2cccc3cccc(c23)S1(=O)=O (centres undefined) | 0.0199 (≈ 65.4 µM)
14 | Cc1c(Cl)cccc1NC(=O)CCC(=O)c1cccs1 | 0.0119 (≈ 38.7 µM)
15 | OC(CNCC1COc2ccccc2O1)COc1ccccc1F (centres undefined) | > 0.05
16 | CC(=O)c1cc(C(C)=O)c(C)[n+](C)c1C.[O-][Cl+3]([O-])([O-])[O-] | 0.0415
17 | COc1ccc(NC2=CC(=O)CC(C)(C)C2)cc1 | > 0.0368
18 | CCOc1ncccc1C(=O)Nc1ccc(S(=O)(=O)Nc2cc(C)nc(C)n2)cc1 | > 0.0641
19 | CCCOC(=O)c1ccc(NC(=O)c2ccccc2[N+](=O)[O-])cc1 | 0.011 (≈ 33.5 µM)
20 | COc1ccc(CN=Cc2c(C(=O)O)[nH]c3ccccc23)cc1 | > 0.0463

Row | Compound | solubility kinetic [mg/mL]
21 | C=CCN1C(=O)C(CC(=O)NCC)SC1=Nc1ccccc1CC (centres undefined) | 0.0443 (≈ 128 µM)
22 | COCc1cc(=O)[nH]c(SCC(=O)N2CCOCC2)n1 | > 0.0449
23 | CC(=O)c1cccc(NC(=O)C(C)OC(=O)C2CCC2)c1 (centres undefined) | > 0.0434
24 | CCC(CC)C(=O)c1c[nH]c(C(=O)NCc2ccccc2OC)c1 | 0.0008 (≈ 2.44 µM)
25 | O=S(=O)(NC1CCCCC1)c1cccs1 | 0.0287 (≈ 117 µM)
26 | CC1CCCN(C(=O)COc2ccc3c(c2)OCO3)C1 (centres undefined) | > 0.0416
27 | COC(=O)c1cc(C(=O)NCc2ccc3c(c2)OCO3)cc([N+](=O)[O-])c1 | 0.0026 (≈ 7.26 µM)
28 | O=C(O)CNc1ccccc1C(=O)O | > 0.0293
29 | CCn1c(Oc2ccccc2C)nc2c1c(=O)n(C)c(=O)n2C | > 0.0472
30 | CSCCCNC(=S)N1CCc2ccccc2C1 | > 0.0421
31 | O=C(COC(=O)c1ccco1)NCc1ccc2c(c1)OCO2 | > 0.0455
32 | CC(=O)Nc1ccc(OCc2ccc3c(c2)OCO3)cc1 | 0.0154 (≈ 54 µM)
33 | O=C1CC(c2ccc(F)cc2)CC2=C1C=Nc1ccccc1N2 (centres undefined) | 0.0007 (≈ 2.29 µM)
34 | O=C(CNC(=O)[C@@H]1Cc2ccccc2CN1)NC1CCCCC1 | > 0.0473
35 | CCCN(CC(=O)Nc1ccc(Cl)cc1Cl)C(=O)c1ccc(=O)[nH]c1 | > 0.0573
36 | Cn1c(=O)c(C(=O)NCC2CCCO2)c(O)c2ccccc21 (centres undefined) | 0.0152 (≈ 50.3 µM)
37 | C/C(=C/c1ccccc1)C(=O)N1CCN(c2ccccc2F)CC1 | 0.0356 (≈ 110 µM)
38 | Cc1ccsc1CNC1C2CC3CC(C2)CC1C3.Cl (centres undefined) | 0.0399
39 | Cc1cc(C=C2C(=O)NC(=O)NC2=O)c(C)n1-c1cccnc1 | 0.0106 (≈ 34.2 µM)
40 | CC1(C)CC(=O)C=C(Nc2ccccc2N)C1 | > 0.0345

Row | Compound | solubility kinetic [mg/mL]
41 | COc1ccc(NC(=O)c2csc(C)c2)cc1OC | > 0.0416
42 | COc1ccccc1OCC#CCN1CCCC1.O=C(O)C(=O)O | > 0.0503
43 | CCOC(=O)C1=C(COC(=O)COc2ccccc2C=O)NC(=O)NC1C (centres undefined) | > 0.0565
44 | Cc1nc(SCc2ccccc2)c2oc3ccccc3c2n1 | < 0.0003
45 | CC1CCCC(C)N1C(=O)CSc1nc2ccccc2c(=O)[nH]1 (centres undefined) | 0.0276 (≈ 83.3 µM)
46 | CC(=O)Nc1ccc(N/C=C/C(=O)c2ccc(C)cc2)cc1 | 0.0032 (≈ 10.9 µM)
47 | CCC1CCCCN1Cc1nc(Cc2ccccc2Cl)no1 (centres undefined) | 0.0163 (≈ 51 µM)
48 | Cc1cc(C)c(C#N)c(N2CCN(c3ccc(F)cc3)CC2)n1 | < 0.0002
49 | COc1ccc(CNC(=O)COC(=O)c2sccc2C)cc1OC | 0.0124 (≈ 35.5 µM)
50 | CC1CCCN(S(=O)(=O)c2cc(C(=O)NCc3ccco3)ccc2Cl)C1 (centres undefined) | 0.0526 (≈ 133 µM)
51 | COc1ccc(C(=O)O/N=C(\N)c2ccccn2)c(OC)c1 | > 0.0452
52 | Cn1c(=O)c2c(=O)cc(N)[nH]c2n(C)c1=O | 0.0121 (≈ 54.5 µM)
53 | Cc1ccsc1CNC(=O)c1c(-c2ccccc2)noc1C | 0.0222 (≈ 71.1 µM)
54 | Cc1cc2cccc(C)c2nc1SCC(=O)NC1CCCCC1 | < 0.0004
55 | O=C(CNC(=O)c1ccccc1)NCc1ccc(Cl)cc1 | 0.0106 (≈ 35 µM)
56 | NC(=S)Cc1ccc(Cl)cc1Cl | 0.0309 (≈ 140 µM)
57 | O=C(CSc1ncccn1)Nc1ccc2[nH]c(=O)[nH]c2c1 | > 0.0452
58 | CCOc1ccc(S(=O)(=O)N(CC)CC(=O)NC2CC2)cc1 | > 0.049
59 | COc1ccccc1NC(=O)c1ccc2c(c1)C(=O)N(Cc1ccco1)C2=O | < 0.0004
